# Results taken from US20240360148A1 (SUVALENT THERAPEUTICS, INC., priority 2021, published 2024).
# Target: SAE1 (Homo sapiens (Human), UniProt Q9UBE0+Q9UBT2)
# Experiment: SAE High Throughput Biochemical Assay (HTRF), 15 min preincubation
# Details: read-out: 15 min preincubation HTRF IC50 (μM) Ave, SAE1 12.5 nM, ATP 100 μM
# Protocol: Assay buffer was prepared [50 mM HEPES, pH 7.5, 0.1% BSA and 10 mM MgCl2] as was the Stop Buffer [100 mM HEPES, pH 7.5, 0.05% Tween20, and 410 mM KF]. The 2×Reaction Buffer [80 nM SUMO-GST, 80 nM UBC9-His, 200 μM ATP and diluted in Assay Buffer] and Antibody Reaction Mix [13.34 nM anti-GSTXL665, 1.66 nM anti-His EuK and Diluted in Stop Buffer] were also prepared. Compounds were dissolved at 200×in DMSO in a 384-well plate. Serial dilutions were performed in DMSO for each compound, and then each concentration was diluted another 50-fold in Assay Buffer, to 4× the final concentration. 2.5 μL of each concentration was transferred into its own well in a 384-well plate. SAE1 was then diluted to 4× in Assay Buffer, and 2.5 μL of 4×SAE1 was mixed into each compound-containing well. After incubating for 15 minutes at RT, 5 μL of 2×Reaction Buffer was mixed into every well. Then after another 45 minutes at RT, 10 μL of Antibody Reaction Mix was added and mixed into every well. This plate was then read on an HTRF-compatible plate reader after 2 hours at RT, and again after sitting at RT overnight. [Final Component Concentrations: SAE1: 12.5 nM; SUMO-GST: 40 nM; UBC9-His: 40 nM; Anti-GST-XL665: 6.67 nM; Anti-His-EuK: 0.83 nM; and ATP: 100 μM] Alternatively, the compounds are tested at a single concentration of 25 micromolar and the percent of control is measured.
# Sequence of SAE1 (Q9UBE0 whole entry): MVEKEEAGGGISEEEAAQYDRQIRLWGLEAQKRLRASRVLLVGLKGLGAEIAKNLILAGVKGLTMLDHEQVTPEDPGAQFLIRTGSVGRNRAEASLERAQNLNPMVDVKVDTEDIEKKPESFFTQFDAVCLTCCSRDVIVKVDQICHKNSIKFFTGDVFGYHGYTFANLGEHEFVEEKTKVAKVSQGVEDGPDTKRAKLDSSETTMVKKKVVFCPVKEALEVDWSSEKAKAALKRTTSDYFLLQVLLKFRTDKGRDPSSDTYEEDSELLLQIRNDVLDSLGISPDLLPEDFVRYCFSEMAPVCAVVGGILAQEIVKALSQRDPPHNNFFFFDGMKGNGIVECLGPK
# Sequence of SAE1 (Q9UBT2 whole entry): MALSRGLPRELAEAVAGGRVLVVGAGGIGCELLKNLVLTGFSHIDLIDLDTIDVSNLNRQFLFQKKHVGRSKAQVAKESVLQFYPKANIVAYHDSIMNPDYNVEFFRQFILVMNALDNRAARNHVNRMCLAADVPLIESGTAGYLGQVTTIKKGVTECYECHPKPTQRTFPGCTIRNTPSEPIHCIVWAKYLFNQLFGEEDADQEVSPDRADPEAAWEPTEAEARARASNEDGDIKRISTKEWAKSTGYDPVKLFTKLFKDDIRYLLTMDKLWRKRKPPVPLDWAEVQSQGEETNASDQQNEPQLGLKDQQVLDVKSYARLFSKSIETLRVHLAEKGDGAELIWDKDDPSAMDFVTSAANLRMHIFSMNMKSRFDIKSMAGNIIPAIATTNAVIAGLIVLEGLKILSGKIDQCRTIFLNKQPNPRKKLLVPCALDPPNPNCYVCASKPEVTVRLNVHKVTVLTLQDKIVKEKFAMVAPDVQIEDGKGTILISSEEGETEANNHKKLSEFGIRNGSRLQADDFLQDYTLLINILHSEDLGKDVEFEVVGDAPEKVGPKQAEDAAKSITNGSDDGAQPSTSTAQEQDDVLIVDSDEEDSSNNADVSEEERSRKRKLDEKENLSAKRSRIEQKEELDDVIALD
row,Compound,IC50
1,"CCn1cc(-c2c(F)cccc2[C@@H]2CN(C(=O)/C=C/CN[C@@H]3CCOC3)Cc3sc(C#N)cc32)c(C(F)(F)F)n1 [Example 55, (S)-4-(2-(1-ethyl-3-(trifluoromethyl)-1 H-pyrazol-4-yl)-3-fluorophenyl)-6-((E)-4-(((R)-tetrahydrofuran-3-yl)amino)but-2-enoyl)-4,5,6,7-tetrahydrothieno[2,3-c]pyridine-2-carbonitrile]",1.66 µM
2,"CCn1cc(-c2c(F)cccc2[C@@H]2CN(C(=O)/C=C/CNC3CCN(C(C)=O)CC3)Cc3sc(C#N)cc32)c(C(F)(F)F)n1 [Example 57, (S, E)-6-(4-((1-acetylpiperidin-4-yl)amino)but-2-enoyl)-4-(2-(1-ethyl-3-(trifluoromethyl)-1 H-pyrazol-4-yl)-3-fluorophenyl)-4,5,6,7-tetrahydrothieno[2,3-c]pyridine-2-carbonitrile]",> 25 µM
3,"CN(C)C/C=C/C(=O)N1Cc2sc(C#N)cc2[C@H](c2ccccc2C#N)C1 [Example 4, (S, E)-4-(2-Cyanophenyl)-6-(4-(dimethylamino)but-2-enoyl)-4,5,6,7-tetrahydrothieno[2,3-c]pyridine-2-carbonitrile]",> 25 µM
4,"CC(C(=O)N(C)C)n1cc(-c2ccccc2[C@@H]2CN(C(=O)/C=C/CN(C)C)Cc3sc(C#N)cc32)c(C(F)(F)F)n1 (stereo partly drawn) [Example 164, 2-(4-(2-((S)-2-Cyano-6-((E)-4-(dimethylamino)but-2-enoyl)-4,5,6,7-tetrahydrothieno[2,3-c]pyridin-4-yl)phenyl)-3-(trifluoromethyl)-1 H-pyrazol-1-yl)-N, N-dimethylpropanamide]",10.9 µM
5,"CNC(=O)C(C)n1cc(-c2ccccc2[C@@H]2CN(C(=O)/C=C/CN(C)C)Cc3sc(C#N)cc32)c(C(F)(F)F)n1 (stereo partly drawn) [Example 161, 2-(4-(2-((S)-2-Cyano-6-((E)-4-(dimethylamino)but-2-enoyl)-4,5,6,7-tetrahydrothieno[2,3-c]pyridin-4-yl)phenyl)-3-(trifluoromethyl)-1 H-pyrazol-1-yl)-N-methylpropanamide]",15.8 µM
6,"CCn1cc(-c2ccccc2[C@@H]2CN(C(=O)/C=C/CN(C)C)Cc3sc(C#N)cc32)c(C(C)(F)F)n1 [Example 10, (S, E)-4-(2-(3-(1,1-difluoroethyl)-1-ethyl-1H-pyrazol-4-yl)phenyl)-6-(4-(dimethylamino)but-2-enoyl)-4,5,6,7-tetrahydrothieno[2,3-c]pyridine-2-carbonitrile]",13.4 µM
7,"CN(C)C/C=C/C(=O)N1Cc2sc(C#N)cc2C(c2ccccc2-c2cn(CCC#N)nc2C(F)(F)F)C1 (centres unmarked) [Example 154, (E)-4-(2-(1-(2-Cyanoethyl)-3-(trifluoromethyl)-1H pyrazol-4-yl)phenyl)-6-(4-(dimechylamino)but-2-enoyl)-4,5,6,7-tetrahydrothieno[2,3-c]pyridine-2-carbonitrile]",7.34 µM
8,"CCn1cc(-c2ccccc2[C@@H]2CN(C(=O)C#CC3(N)CCC3)Cc3sc(C#N)cc32)c(C(F)(F)F)n1 [Example 137, (S)-6-(3-(1-Aminocyclobutyl)propioloyl)-4-(2-(1-ethyl-3-(trifluoromethyl)-1 H pyrazol-4-yl)phenyl)-4,5,6,7-tetrahydrothieno[2,3-c]pyridine-2-carbonitrile]",0.36 µM
9,"CCOC(=O)Cn1cc(-c2ccccc2[C@@H]2CN(C(=O)/C=C/CN(C)C)Cc3sc(C#N)cc32)c(C(F)(F)F)n1 [Example 169, Ethyl (S,E)-2-(4-(2-(2-cyano-6-(4-(dimethylamino)but-2-enoyl)-4,5,6,7-tetrahydrothieno[2,3-c]pyridin-4-yl)phenyl)-3-(trifluoromethyl)-1 H-pyrazol-1-yl)acetate]",14.5 µM
10,"CCn1cc(-c2ccccc2[C@@H]2CN(C(=O)/C=C/CN3CCC[C@H]3C(=O)O)Cc3sc(C#N)cc32)c(C(F)(F)F)n1 [Example 6, ((E)-4-((S)-2-cyano-4-(2-(1-ethyl-3-(trifluoromethyl)-1 H-pyrazol-4-yl)phenyl)-4,7-dihydrothieno[2,3-c]pyridin-6(5H)-yl)-4-oxobut-2-en-1-yl)proline]",7.43 µM
11,"CCn1cc(-c2ccccc2[C@@H]2CN(C(=O)/C=C/CN(C)Cc3ccccc3)Cc3sc(C#N)cc32)c(C(F)(F)F)n1 [Example 33, (S, E)-6-(4-(benzyl(methyl)amino)but-2-enoyl)-4-(2-(1-ethyl-3-(trifluoromethyl)-1 H-pyrazol-4-yl)phenyl)-4,5,6,7-tetrahydrothieno[2,3-c]pyridine-2-carbonitrile]",8.44 µM
12,"CCn1cc(-c2cc(Cl)ccc2C2CN(C(=O)/C=C/CN(C)C)Cc3sc(C#N)cc32)c(C(F)(F)F)n1 (centres unmarked) [Example 212, (E)-4-(4-Chloro-2-(1-ethyl-3-(trifluoromethyl)-1 H-pyrazol-4-yl)phenyl)-6-(4-(dimethylamino)but-2-enoyl)-4,5,6,7-tetrahydrothieno[2,3-c]pyridine-2-carbonitrile]",11.7 µM
13,"CN(C)C/C=C/C(=O)N1Cc2sc(C#N)cc2[C@H](c2ccccc2-c2cn(CC(F)(F)F)nc2C(F)(F)F)C1 [Example 19, (S, E)-6-(4-(Dimethylamino)but-2-enoyl)-4-(2-(1-(2,2,2-trifluoroethyl)-3-(trifluoromethyl)-1 H-pyrazol-4-yl)phenyl)-4,5,6,7-tetrahydrothieno[2,3-c]pyridine-2-carbonitrile]",6.12 µM
14,"CCn1cc(-c2ccc(N)cc2C2CN(C(=O)/C=C/CN(C)C)Cc3sc(C#N)cc32)c(C(F)(F)F)n1 (centres unmarked) [Example 196, (E)-4-(5-Amino-2-(1-ethyl-3-(trifluoromethyl)-1 H-pyrazol-4-yl)phenyl)-6-(4-(dimethylamino)but-2-enoyl)-4,5,6,7-tetrahydrothieno[2,3-c]pyridine-2-carbonitrile]",> 25 µM
15,"CC(C(=O)N(C)C)n1cc(-c2ccccc2[C@@H]2CN(C(=O)/C=C/CN(C)C)Cc3sc(C#N)cc32)c(C(F)(F)F)n1 (stereo partly drawn) [Example 163, 2-(4-(2-((S)-2-Cyano-6-((E)-4-(dimethylamino)but-2-enoyl)-4,5,6,7-tetrahydrothieno[2,3-c]pyridin-4-yl)phenyl)-3-(trifluoromethyl)-1 H-pyrazol-1-yl)-N, N-dimethylpropanamide]",8.68 µM
16,"CCn1cc(-c2c(F)cccc2[C@@H]2CN(C(=O)/C=C/CNC3CCN(C(C)=O)C3)Cc3sc(C#N)cc32)c(C(F)(F)F)n1 (stereo partly drawn) [Example 58, (4S)-6-((E)-4-((1-acetylpyrrolidin-3-yl)amino)but-2-enoyl)-4-(2-(1-ethyl-3-(trifluoromethyl)-1 H-pyrazol-4-yl)-3-fluorophenyl)-4,5,6,7-tetrahydrothieno[2,3-c]pyridine-2-carbonitrile]",6.06 µM
17,C=CC(=O)N1Cc2sc(C#N)cc2C(c2ccc(N)cc2-c2cn(CC)nc2C(F)(F)F)C1 (centres unmarked) [Compound 228],2.07 µM
18,"CN(C)C/C=C/C(=O)N1Cc2sc(C#N)cc2C(c2ccccc2-c2c[nH]nc2C(F)(F)F)C1 (centres unmarked) [Example 152, (E)-6-(4-(Dimethylamino)but-2-enoyl)-4-(2-(3-(trifluoromethyl)-1H-pyrazol-4-yl)phenyl)-4,5,6,7-tetrahydrothieno[2,3-c]pyridine-2-carbonitrile]",10.4 µM
19,"CCn1cc(-c2ccccc2[C@@H]2CN(C(=O)/C=C/CNC3(C)COC3)Cc3sc(C#N)cc32)c(C(F)(F)F)n1 [Example 95, (S, E)-4-(2-(1-Ethyl-3-(trifluoromethyl)-1 H-pyrazol-4-yl)phenyl)-6-(4-((3-methyloxetan-3-yl)amino)but-2-enoyl)-4,5,6,7-tetrahydrothieno[2,3-c]pyridine-2-carbonitrile]",15.6 µM
20,"CN(C)C/C=C/C(=O)N1Cc2sc(C#N)cc2[C@H](c2ccccc2-c2cn(S(C)(=O)=O)nc2C(F)(F)F)C1 [Example 168, (S, E)-6-(4-(Dimethylamino)but-2-enoyl)-4-(2-(1-(methylsulfonyl)-3-(trifluoromethyl)-1 H pyrazol-4-yl)phenyl)-4,5,6,7-tetrahydrothieno[2,3-c]pyridine-2-carbonitrile]",18.8 µM
21,"CCn1cc(-c2c(F)cccc2[C@@H]2CN(C(=O)/C=C/[C@@H](C)NC)Cc3sc(C#N)c(C)c32)c(C(F)(F)F)n1 [Example 218, (S)-4-(2-(1-ethyl-3-(trifluoromethyl)-1 H-pyrazol-4-yl)-3-fluorophenyl)-3-methyl-6-((R, E)-4-(methylamino)pent-2-enoyl)-4,5,6,7-tetrahydrothieno[2,3-c]pyridine-2-carbonitrile]",0.81 µM
22,"CCn1cc(-c2ccccc2[C@@H]2CN(C(=O)/C=C/[C@H](COC)NC)Cc3sc(C#N)cc32)c(C(F)(F)F)n1 [Example 86, (S)-4-(2-(1-Ethyl-3-(trifluoromethyl)-1 H-pyrazol-4-yl)phenyl)-6-((R, E)-5-methoxy-4-(methylamino)pent-2-enoyl)-4,5,6,7-tetrahydrothieno[2,3-c]pyridine-2-carbonitrile]",9.1 µM
23,"CCn1cc(-c2cc(C(F)F)ccc2C2CN(C(=O)/C=C/CN(C)C)Cc3sc(C#N)cc32)c(C(F)(F)F)n1 (centres unmarked) [Example 188, (E)-4-(4-(Difluoromethyl)-2-(1-ethyl-3-(trifluoromethyl)-1 H-pyrazol-4-yl)phenyl)-6-(4-(dimethylamino)but-2-enoyl)-4,5,6,7-tetrahydrothieno[2,3-c]pyridine-2-carbonitrile]",18 µM
